Measured values taken from patent US9562033B2, “Inhibitors of viral replication, their process of preparation and their therapeutical uses” (LABORATOIRE BIODIM, priority 2012, dated 2017).

These compounds were tested on NL4-3 strain of HIV-1 (assay: HIV-1 replication inhibition: cyto-protection of MT4 cells infected with NL4-3 virus (CellTiter-Glo viability assay)). Conditions: Human immunodeficiency virus 1, NL43, 120 h, concentration leading to 50% of cyto-protection, 5 days incubation.
Assay type: cell-based
Description: The antiviral activity, particularly against HIV, of compounds according to the invention is evaluated by the protocol described below.
Preparation of Virus Stock of the NL4-3 Strain of HIV-1
The virus was prepared as described in Lopez et al (Lopez et al, Proc Natl Acad Sci USA., 2006, 103(40):14947-52, by transfecting 2×10^6 293 T cells (CRL-1573, ATCC) with following modifications: 6 μg of NL4-3 proviral DNA molecular clone were mixed with Fugene 6 transfection reagent from Roche, and used according to manufacturer's instructions. Forty eight hours later, transfected cell supernatants were harvested, filtered through 0.45-μm-pore-size filters, quantified for HIV-1 p24 antigen by using a Innotest HIV antigen mAb assay (Ingen) according to manufacturer's instructions, and used in infection experiments.
Preparation of Compounds:
Serial dilutions of compounds to be tested were prepared in complete RPMI medium from 10 mM DMSO stock solutions, and distributed in a volume of 20 µl in 96 well Falcon 353072 Microtest™ tissue culture plate, in order to get 0.5% DMSO final concentration in each well, after the addition of infected cells. Control wells contained also 0.5% DMSO final concentration but no compound.
MT4 cells (from the NIH AIDS Research and Reference Reagent Program) in RPMI complete medium were counted (10×10^6 cells per well in Falcon 353047 Multiwell™ 24 well) and infected for 2 hours at 37°, at a multiplicity of infection (moi) of 0.0001-0.00001. Cells were then centrifuged 3 min at 3000 rpm, and washed two times in 1 ml PBS to remove viruses that have not entered in cells. Infected cells were resuspended in complete RPMI at 1.25×10^6 cells/ml, and 80 µl of infected cells were distributed in each well containing compounds to be tested or control wells. The plates were then incubated at 37° for 5 days.
Assay Used to Measure the Inhibition of HIV Replication by the Compounds
(according to Gregg S. Jones et al., Antimicrobial Agents and Chemotherapy, 2009, 53 (3): 1194-1203).
After 5 days of incubation, […] of CellTiter-Glo reagent (Promega Biosciences, Inc., Madison Wis., USA) were added to each well. Cell lysis was carried out at room temperature during 10 min, 150 μl of lysates were transferred in Packard Optiplate 96 well, and luminescence was read on a Fluoroskan (Thermo Scientific).
With `Cc1sc(-c2nccs2)c(C2=CCC(C)(C)CC2)c1C(OC(C)(C)C)C(=O)O` (stereo not shown) [Example 45, 2-(tert-butoxy)-2-[4-(4,4-dimethylcyclohex-1-en-1-yl)-2-methyl-5-(1,3-thiazol-2-yl)thiophen-3-yl]acetic acid] the EC50 was 440 nM. Work on `Cc1sc(-c2cccn2C)c(-c2ccc3c(c2)CCCO3)c1C(OC(C)(C)C)C(=O)O` (stereo not shown) [Example 81, 2-(tert-butoxy)-2-[4-(3,4-dihydro-2H-1-benzopyran-6-yl)-2-methyl-5-(1-methyl-1H-pyrrol-2-yl)thiophen-3-yl]acetic acid] yielded an EC50 of 2500 nM. `Cc1sc(-c2ccncc2)c(-c2cc(F)c3c(c2)CCCO3)c1C(OC(C)(C)C)C(=O)O` (stereo not shown) [Example 40, 2-(tert-butoxy)-2-[4-(8-fluoro-3,4-dihydro-2H-1-benzopyran-6-yl)-2-methyl-5-(pyridin-4-yl)thiophen-3-yl]acetic acid] was tested, and the EC50 was 360 nM. `Cc1sc(C2CC2)c(C2=CCC(C)(C)CC2)c1C(OC(C)(C)C)C(=O)O` (stereo not shown) [Example 66, 2-(tert-butoxy)-2-{2-methyl-4-[4,4-dimethylcyclohex-1-en-1-yl]-5-(cyclopropyl)thiophen-3-yl}acetic acid] was tested, and the EC50 was 1100 nM. Compound `Cc1cc(-c2sc(C)c(C(OC(C)(C)C)C(=O)O)c2-c2ccc3c(c2)CCCO3)ccn1` (stereo not shown) [Example 14, 2-(tert-butoxy)-2-[4-(3,4-dihydro-2H-1-benzopyran-6-yl)-2-methyl-5-(2-methylpyridin-4-yl)thiophen-3-yl]acetic acid] has an EC50 of 480 nM. `Cc1sc(-c2cccc(C(N)=O)c2)c(C2=CCC(C)(C)CC2)c1C(OC(C)(C)C)C(=O)O` (stereo not shown) [Example 31, 2-(tert-butoxy)-2-[4-(4,4-dimethylcyclohex-1-en-1-yl)-2-methyl-5-(aminocarbonylphen-3-yl)thiophen-3-yl]acetic acid] gave an EC50 of 40 nM. Compound `Cc1sc(-c2ccc(S(N)(=O)=O)cc2)c(C2=CCC(C)(C)CC2)c1C(OC(C)(C)C)C(=O)O` (stereo not shown) [Example 32, 2-(tert-butoxy)-2-[4-(4,4-dimethylcyclohex-1-en-1-yl)-2-methyl-5-(benzenesulfonamide-4-yl)thiophen-3-yl]acetic acid] has an EC50 of 430 nM. `Cc1sc(-c2ccccn2)c(C2=CCC(C)(C)CC2)c1C(OC(C)(C)C)C(=O)O` (stereo not shown) [Example 43, 2-(tert-butoxy)-2-[4-(4,4-dimethylcyclohex-1-en-1-yl)-2-methyl-5-(pyridin-2-yl)thiophen-3-yl]acetic acid] gave an EC50 of 440 nM. Work on `Cc1sc(-c2ccccc2)c(C2=CCC(C)(C)c3cccnc32)c1C(OC(C)(C)C)C(=O)O` (stereo not shown) [Example 67, 2-(tert-butoxy)-2-[4-(5,5-dimethyl-5,6-dihydroquinolin-8-yl)-2-methyl-5-phenylthiophen-3-yl]acetic acid] yielded an EC50 of 2300 nM. `Cc1sc(-c2ccc(S(=O)(=O)N(C)C)cc2)c(C2=CCC(C)(C)CC2)c1C(OC(C)(C)C)C(=O)O` (stereo not shown) [Example 77, 2-(tert-butoxy)-2-[4-(4,4-dimethylcyclohex-1-en-1-yl)-5-[4-(dimethylsulfamoyl)phenyl]-2-methylthiophen-3-yl]acetic acid] gave an EC50 of 4400 nM. `Cc1sc(-c2ccncc2)c(C2=CCC3(CC2)CC3)c1C(OC(C)(C)C)C(=O)O` (stereo not shown) [Example 12, 2-(tert-butoxy)-2-[2-methyl-5-(pyridin-4-yl)-4-{spiro[2,5]oct-5-en-6-yl}thiophen-3-yl]acetic acid] showed an EC50 of 130 nM. In the case of `Cc1sc(C2=CCOCC2)c(-c2ccc3c(c2)CCCO3)c1C(OC(C)(C)C)C(=O)O` (stereo not shown) [Example 78, 2-(tert-butoxy)-2-[4-(3,4-dihydro-2H-1-benzopyran-6-yl)-5-(3,6-dihydro-2H-pyran-4-yl)-2-methylthiophen-3-yl]acetic acid], the EC50 is reported as 4300 nM. In the case of `Cc1sc(-c2cnn(C)c2)c(C2=CCC(C)(C)CC2)c1C(OC(C)(C)C)C(=O)O` (stereo not shown) [Example 24, 2-(tert-butoxy)-2-[4-(4,4-dimethylcyclohex-1-en-1-yl)-2-methyl-5-(N-methylpyrazol-4-yl)thiophen-3-yl]acetic acid], the EC50 is reported as 310 nM.
